From US20240424019A1, “SHP1 MODIFIED DENDRITIC CELLS AND EXTRACELLULAR VESICLES DERIVED THEREFROM AND ASSOCIATED METHODS” (BOARD OF REGENTS, THE UNIVERSITY OF TEXAS SYSTEM, priority 2021, published 2024)

Assays:
[1] = test system: B16-GMCSF melanoma; test: B16-GMCSF melanoma model; type: in vivo, mouse; conditions: intradermal implants, C57BL/6 mice, 3 mg/kg oral daily, day 19, vs vehicle, n=5
[2] = test system: human iPSC-DCs; test: Activation of human iPSC-derived DCs by flow cytometry; type: cell-based; conditions: vitamin E 50 μg/ml or TPI-1 1 μg/ml, 72 h, gated on CD11c+
Excerpt: FIG. 10A: Representative high magnification photomicrographs (100×, 200×, 400×) illustrating the morphology of colonies and individual cells of fully differentiated iPSC-derived DCs (iPSC-DCs) displaying characteristic DC morphology consisting of protrusions and veils of cytoplasm at the end of the differentiation procedure (day 23) after using the differentiation protocol for the addition and withdrawal of growth factors and cytokines. FIG. 10B: Phenotypic characterization of generated human iPSC-DCs. Representative flow cytometry analysis depicting the expression of DC lineage markers by iPSC-DCs gated on the CD11c+ population. Levels of expression of individual markers are shown as red histograms, while non-specific staining by isotype controls is shown as light blue histograms. FIG. 10C: Phenotypic characterization of human iPSC-DCs after treatment with vitamin E or TPI-1 to inhibit SHP1. Representative flow cytometry analysis (left panel) and quantification (right panel) depicting the expression of indicated activity markers by iPSC-DCs gated on the CD11c+population with the treatment of vehicle, vitamin E (50 μg/ml) or TPI-1 (1 μg/ml) for 72 h.
We explored the feasibility of differentiating populations of primary DCs from iPSCs and characterized the phenotype of iPSC-DC with the pharmacological inhibition of SHP1 by vitamin E or TPI-1. […]

## O=C1C=CC(=O)C(c2cc(Cl)ccc2Cl)=C1 [TPI-1, 2-(2,5-dichlorophenyl)-2,5-cyclohexadiene-1,4-dione]
[1]
  mean tumor volume: significantly smaller tumor volume
[2]
  expression of DC activation markers on iPSC-DCs: increased expression of DC activation markers CD40 and CD86
